{
  "source": "patent US20260232639A1",
  "about": "“COMPOUNDS FOR USE IN THE TREATMENT OF SCHIZOPHRENIA” (ONTRACK THERAPEUTICS LIMITED, priority 2023, published 2026)",
  "key": {"[1]": {"system": "parvalbumin interneurons", "experiment": "Parvalbumin immunohistochemistry in brains of scPCP-treated rats", "assay_type": "in vivo, rat", "settings": "21-day treatment, 30 mg/kg p.o.", "experimental": "Animals were culled by increasing concentration of carbon dioxide and death was confirmed by cervical dislocation. Brains were removed, frozen on dry ice and stored at −80° C. until analysis.\n½ brains (one hemisphere) were randomly selected and processed for parvalbumin immunohistochemistry (IHC), quantified in the prefrontal cortex and dorsal hippocampus.\nSections (30 μm thickness) were washed in 1× PBS three times for five minutes each. Sections underwent heat-induced antigen retrieval in sodium citrate buffer (0.294% (w/v) sodium citrate, 0.07% (v/v) tween-20, 500 ml distilled water, pH adjusted to 6.0) for 30 minutes at 80° C. Unless otherwise stated, samples were washed twice in 1× PBS between each step.\nParvalbumin (PV) sections were processed for light microscopy. […]\nImages were acquired on a 3D-Histech Pannoramic-250 microscope slide-scanner using a 20×/0.80 Plan Apochromat objective (Zeiss). […] For PV images, the region of interest was delineated, and the number of cell detections were manually counted within the CaseViewer software. Density was calculated by dividing the number of positive cell detections by the area of the region of interest.\nParvalbumin density in the Prefrontal Cortex and Dorsal Hippocampus were analysed using a repeated measure two-way ANOVA with region and treatment as fixed factors. […]"}, "[2]": {"system": "BDNF", "experiment": "BDNF ELISA in brain tissue of scPCP-treated rats", "assay_type": "in vivo, rat", "settings": "Example 4; 21-day treatment; two different protein concentrations", "procedure": "(§1) Remaining ½ brains (remaining hemispheres) were processed for protein analysis of BDNF using ELISA (quantified in the prefrontal cortex and the dorsal hippocampus) and synaptic markers using Simple Western (quantified in the prefrontal cortex).\n(§2) Prefrontal Cortex and dorsal hippocampus were dissected from the frozen brain and homogenised on ice in a 10-fold volume (mg:μL) of buffer (10 mM Trizma base, Sigma-Aldrich; […] sucrose, Sigma-Aldrich; 2 mM EDTA, Sigma-Aldrich; and protease- and phosphatase-inhibitor cocktails, Sigma-Aldrich) buffered to a pH of 7.4. Phenylmethylsulfonyl fluoride (PMSF) and sodium orthovanadate were added to the solution at a 1% (v/v) concentration. Samples were centrifuged at 800×g for 15 minutes at 4° C. The supernatant was collected and centrifuged at 11,700×g for 20 minutes, and the resulting supernatant was collected and stored at −20° C. until analysis.\nProtein concentrations of each sample were calculated using a Bradford Assay. Samples were diluted into protein assay dye reagent concentrate (BioRad) and compared to bovine serum albumin (Sigma) of known concentration (1.0-0.1 mg/ml protein). […]\n(§3) BDNF and synaptic markers were analysed using a one-way ANOVA followed by planned post hoc analysis to investigate differences between treatment groups for Prefrontal Cortex (BDNF & Synaptic markers) and Dorsal Hippocampus (BDNF) respectively."}, "[3]": {"system": "SNAP25", "experiment": "Simple Western of synaptic marker SNAP25 in prefrontal cortex of scPCP-treated rats", "assay_type": "in vivo, rat", "settings": "21-day treatment; for SNAP25 levels in the total prefrontal cortex (FIG. 18): Example 3, vs scPCP; for scPCP-induced loss of SNAP25, relative protein level in prefrontal cortex (FIG. 21): Example 4", "procedure": "as §1, §2\nProtein concentrations of each sample were calculated using a Bradford Assay. Samples were diluted into protein assay dye reagent concentrate (BioRad) and compared to bovine serum albumin (Sigma) of known concentration (1.0-0.1 mg/ml protein). A standard curve was created using a simple linear regression. Standards and samples were run in triplicate. An outlying value from a triplicate was removed if the CV value was greater than 10%.\nA WES plate was prepared following the provided instructions (SM-W004, ProteinSimple). Diluted samples were mixed with dithiothreitol and fluorescent master mix in an 8:1:1 ratio. Samples were denatured at 95° C. for five minutes. The samples, antibody diluent, primary antibody, secondary antibody and luminol-peroxide mix were loaded into appropriate wells. A biotinylated ladder, antibody diluent, streptavidin-HRP and luminol peroxide were also loaded. After brief centrifugation of the plate, wash buffer was added. The plate was then placed into the WES machine, whereby the load separation matrix is aspirated, and stacking matrix drawn up into each capillary. […] Finally, the chemiluminescent substrate was added into the capillaries, and the camera detected the levels of chemiluminescence at 9 different timepoints (1-512 seconds). The software then calculated the high dynamic range (HDR) of the peaks, which is calculated from the individual exposures and provides the largest dynamic range of the signal with the lowest background. The HDR peak is then used to calculate the area under the curve, which is analogous to the quantity of protein in the sample. […]\nas §3"}, "[4]": {"system": "PSD95", "experiment": "Simple Western of synaptic marker PSD95 in prefrontal cortex of scPCP-treated rats", "assay_type": "in vivo, rat", "settings": "Example 4, 21-day treatment", "procedure": "as §1\nPrefrontal Cortex and dorsal hippocampus were dissected from the frozen brain and homogenised on ice in a 10-fold volume (mg:μL) of buffer (10 mM Trizma base, Sigma-Aldrich; […] sucrose, Sigma-Aldrich; 2 mM EDTA, Sigma-Aldrich; and protease- and phosphatase-inhibitor cocktails, Sigma-Aldrich) buffered to a pH of 7.4. Phenylmethylsulfonyl fluoride (PMSF) and sodium orthovanadate were added to the solution at a 1% (v/v) concentration. Samples were centrifuged at 800×g for 15 minutes at 4° C. […]\nProtein concentrations of each sample were calculated using a Bradford Assay. […]\nA WES plate was prepared following the provided instructions (SM-W004, ProteinSimple). […] Finally, the chemiluminescent substrate was added into the capillaries, and the camera detected the levels of chemiluminescence at 9 different timepoints (1-512 seconds). The software then calculated the high dynamic range (HDR) of the peaks, which is calculated from the individual exposures and provides the largest dynamic range of the signal with the lowest background. The HDR peak is then used to calculate the area under the curve, which is analogous to the quantity of protein in the sample. […]"}, "[5]": {"system": "scPCP treated rats", "experiment": "Social interaction test in sub-chronic PCP treated rats", "settings": "for Object exploration duration, inanimate object (FIG. 10): 21-day test article 10 & 30 mg/kg p.o."}, "[6]": {"system": "scPCP treated rats", "experiment": "Novel object recognition (NOR) test in sub-chronic PCP treated rats", "settings": "for Time spent exploring the novel versus familiar object in the retention trial (FIG. 6): 20-day treatment with compound of Formula I 10 & 30 mg/kg p.o.; for Time spent exploring the novel versus familiar object in the retention trial (FIG. 2): compound of Formula I 10 & 30 mg/kg p.o."}, "[7]": {"system": "scPCP treated rats", "experiment": "Attentional set-shifting task (ASST) in sub-chronic PCP treated rats", "settings": "for Number of trials to criterion in the EDS phase (FIG. 20): 21-day treatment, compared to scPCP group"}, "[8]": {"system": "scPCP treated rats", "settings": "7-day treatment; female rats; McLean et al., 2008, 2012; cited from earlier work"}, "[9]": {"molecular_target": "tropomyosin receptor kinase B (TrkB) (Homo sapiens, UniProt Q16620)", "sequence (Q16620 32-822, species assumed)": "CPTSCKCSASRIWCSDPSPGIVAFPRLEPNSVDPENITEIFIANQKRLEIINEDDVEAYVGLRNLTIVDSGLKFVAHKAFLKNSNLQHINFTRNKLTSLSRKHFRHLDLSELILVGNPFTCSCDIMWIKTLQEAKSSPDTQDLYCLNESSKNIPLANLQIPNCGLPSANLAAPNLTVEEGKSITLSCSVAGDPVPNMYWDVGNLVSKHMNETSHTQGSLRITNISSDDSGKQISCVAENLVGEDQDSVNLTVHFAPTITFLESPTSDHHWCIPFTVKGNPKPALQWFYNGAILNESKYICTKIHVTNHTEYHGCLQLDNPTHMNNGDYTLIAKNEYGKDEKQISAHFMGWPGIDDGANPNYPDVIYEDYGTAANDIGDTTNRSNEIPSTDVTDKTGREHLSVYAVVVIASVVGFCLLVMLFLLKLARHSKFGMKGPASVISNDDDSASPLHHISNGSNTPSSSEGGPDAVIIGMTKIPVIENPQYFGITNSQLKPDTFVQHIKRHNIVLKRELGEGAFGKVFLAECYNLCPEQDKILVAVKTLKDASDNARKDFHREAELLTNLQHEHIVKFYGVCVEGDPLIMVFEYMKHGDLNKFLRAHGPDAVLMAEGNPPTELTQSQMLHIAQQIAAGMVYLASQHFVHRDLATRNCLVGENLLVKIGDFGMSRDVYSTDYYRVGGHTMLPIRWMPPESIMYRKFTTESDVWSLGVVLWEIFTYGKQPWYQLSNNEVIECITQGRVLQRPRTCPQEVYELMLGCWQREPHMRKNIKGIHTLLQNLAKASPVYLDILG", "settings": "known from the art; cited from earlier work"}, "[10]": {"settings": "acute risperidone 0.1 mg/kg i.p."}, "[11]": {"settings": "acute risperidone 0.1 mg/kg i.p., scPCP rats"}, "[12]": {"settings": "acute treatment, risperidone 0.1 mg/kg i.p., scPCP rats"}, "[13]": {"settings": "20-day phase, scPCP rats, acute risperidone 0.1 mg/kg i.p."}, "[14]": {"settings": "acute phase, scPCP rats, risperidone 0.1 mg/kg i.p., 60 min prior to testing"}},
  "data": [
    {"smiles": "N#Cc1ccc(-c2cc(=O)c3ccc4[nH]c(C(F)(F)F)nc4c3o2)cc1", "note": "[Compound of Formula I, 4-(6-oxo-2-(trifluoromethyl)-3,6-dihydrochromeno[7,8-d]imidazol-8-yl)benzonitrile]", "values": [
      {"measurement": "PV cell density in the total prefrontal cortex (FIG. 13)", "setting": "[1]; compared to scPCP group", "value": "significantly increased"},
      {"measurement": "PV cell density in subregions of the prefrontal cortex (Cg1, PrL, IL) (FIG. 12)", "setting": "[1]; vs scPCP", "value": "significantly increased"},
      {"measurement": "Concentration of BDNF in the dorsal hippocampus (FIG. 22)", "setting": "[2]", "value": "increase the level of BDNF back to that of vehicle treated animals"},
      {"measurement": "SNAP25 levels in the total prefrontal cortex (FIG. 18)", "setting": "[3]; 10 mg/kg p.o.", "value": "increased significantly"},
      {"measurement": "SNAP25 levels in the total prefrontal cortex (FIG. 18)", "setting": "[3]; 30 mg/kg p.o.", "value": "not"},
      {"measurement": "scPCP-induced loss of SNAP25, relative protein level in prefrontal cortex (FIG. 21)", "setting": "[3]; 30 mg/kg p.o.", "value": "not"},
      {"measurement": "scPCP-induced loss of SNAP25, relative protein level in prefrontal cortex (FIG. 21)", "setting": "[3]; 3 and 10 mg/kg p.o.", "value": "significantly alleviated"},
      {"measurement": "scPCP-induced loss of PSD95, relative protein level in prefrontal cortex (FIG. 21)", "setting": "[4]; 30 mg/kg p.o.", "value": "not"},
      {"measurement": "scPCP-induced loss of PSD95, relative protein level in prefrontal cortex (FIG. 21)", "setting": "[4]; 3 and 10 mg/kg p.o.", "value": "significantly alleviated"},
      {"measurement": "Object exploration duration, inanimate object (FIG. 10)", "setting": "[5]; [10]", "value": "no differences"},
      {"measurement": "Sniffing duration, social impairment deficit (FIG. 9)", "setting": "[5]; 21-day treatment, 10 & 30 mg/kg p.o.", "value": "able to rescue the social impairment deficit in the scPCP treated rats in a dose dependent manner"},
      {"measurement": "Time spent exploring the novel versus familiar object in the retention trial (FIG. 6)", "setting": "[6]; [11]", "value": "dose dependent statistically significant effect"},
      {"measurement": "Discrimination index (DI) (FIG. 7)", "setting": "[6]; 20-day treatment, 30 mg/kg p.o., compared to scPCP animals without treatment", "value": "statistically significant increase"},
      {"measurement": "Time spent exploring the novel versus familiar object in the retention trial (FIG. 2)", "setting": "[6]; [12]", "value": "not shown to have a difference"},
      {"measurement": "Number of trials to criterion in the EDS phase (FIG. 20)", "setting": "[7]; 3 mg/kg p.o.", "value": "No significant reduction"},
      {"measurement": "Number of trials to criterion in the EDS phase (FIG. 20)", "setting": "[7]; 10 mg/kg p.o.", "value": "near significant reductions"},
      {"measurement": "Number of trials to criterion in the EDS phase (FIG. 20)", "setting": "[7]; 30 mg/kg p.o.", "value": "significant reductions"}
    ]},
    {"smiles": "Cc1nc2n(c(=O)c1CCN1CCC(c3noc4cc(F)ccc34)CC1)CCCC2", "note": "[Risperidone, risperidone]", "values": [
      {"measurement": "Reversal of scPCP deficit in the extra-dimensional shift", "setting": "[8]", "value": "reversed"},
      {"measurement": "Object exploration duration, inanimate object (FIG. 10)", "setting": "[5]; [10]", "value": "no differences"},
      {"measurement": "Sniffing duration (FIG. 9)", "setting": "[5]; acute risperidone 0.1 mg/kg i.p., 60 min prior to testing", "value": "increase the amount of time the rat spent sniffing to a similar level as that observed by the higher dose of test article"},
      {"measurement": "Acquisition total exploration time", "setting": "[6]; [13]", "value": "25.5 ± 3.4", "unit": "s"},
      {"measurement": "Retention total exploration time", "setting": "[6]; [13]", "value": "17.8 ± 1.1", "unit": "s"},
      {"measurement": "Time spent exploring the novel versus familiar object in the retention trial (FIG. 6)", "setting": "[6]; [11]", "value": "statistically significant increase"},
      {"measurement": "Acquisition total exploration time", "setting": "[6]; [14]", "value": "22.81 ± 4.03", "unit": "s"},
      {"measurement": "Retention total exploration time", "setting": "[6]; [14]", "value": "23.10 ± 2.92", "unit": "s"},
      {"measurement": "Time spent exploring the novel versus familiar object in the retention trial (FIG. 2)", "setting": "[6]; [12]", "value": "statistically significant increase"},
      {"measurement": "Discrimination index (DI) (FIG. 3)", "setting": "[6]; [12]", "value": "higher discrimination index (DI) than those without treatment"},
      {"measurement": "scPCP-induced deficit in the EDS phase (FIG. 20)", "setting": "[7]; [10]", "value": "significantly (P<0.01) reversed"}
    ]},
    {"smiles": "O=C(CCCN1CCC(O)(c2ccc(Cl)cc2)CC1)c1ccc(F)cc1", "note": "[haloperidol]", "values": [
      {"measurement": "Reversal of scPCP deficit in the extra-dimensional shift", "setting": "[8]", "value": "not"}
    ]},
    {"smiles": "O=c1cc(-c2ccccc2)oc2c(O)c(O)ccc12", "note": "[tropoflavin, 7,8-dihydroxyflavone]", "values": [
      {"measurement": "Agonism of TrkB", "setting": "[9]", "value": "potent and selective agonist"}
    ]}
  ]
}
